Test results published in article PMC8778670, “Identification of an Orally Bioavailable, Brain-Penetrant Compound with Selectivity for the Cannabinoid Type 2 Receptor” (Molecules, 2022).

Legend:
[1] = molecular target: T1, human CB2 receptors (Homo sapiens, UniProt P34972); test: Cannabinoid receptor [3H]CP-55,940 displacement binding assay, CB2; conditions: for inhibition at 10 µM: 1 h, 10 µM compound, CHO cell membranes, 2.5 nM radioligand, read-out: Displacement of [3H]CP-55,940 from CB2; for displacement of [3H]CP-55,940 in the competitive radioligand screen: 10 µM, receptor (CB1 or CB2) not given
T1 construct: expressed in transfected cells; host or cells: CHO cells
Procedure: (§1) The affinities of the compounds for CB1 and CB2 receptors were examined using displacement assays, as previously described. Briefly, cell membranes from CHO cells expressing human CB1 or human CB2 receptors were isolated using differential centrifugation. Test compounds reconstituted in DMSO and were incubated with the isolated membrane in binding buffer (50 mM Tris-HCl, 1 mM EDTA, 3 mM MgCl2, 5 mg/mL BSA, pH 7.4) along with 2.5 nM [^3H]CP-55,940. Total binding was assessed in the presence of equal concentration of DMSO, while non-specific binding was determined in the presence of 10 μM CP-55,940, and background binding was determined in wells lacking membrane. Following incubation at 30 °C for 60 min, the binding reactions were terminated by vacuum filtration through Whatman GF/C filters. The filters were then washed twice with ice-cold buffer (50 mM Tris-HCl, 1 mg/mL BSA). Liquid scintillation cocktail was added to each well and the total tritiated counts per minute were analyzed using a TopCount scintillation counter. Background counts were subtracted from all wells and the percent displacement from total binding was calculated.
(§2) The compounds were initially screened at 10 μM concentrations. If they produced at least ±30% displacement of the radioligand, then full competition curves were constructed. Ki values were calculated using GraphPad Prism (San Diego, CA, USA) and Kd values determined using a 1 site fit. All assays were run in technical and biological replicates so that the n = 5–6.

[2] = molecular target: T2, human CB1 receptors (Homo sapiens, UniProt P21554); test: Cannabinoid receptor [3H]CP-55,940 displacement binding assay, CB1; conditions: 1 h; 10 µM compound; CHO cell membranes, 2.5 nM radioligand; read-out: Displacement of [3H]CP-55,940 from CB1
T2 construct: expressed in transfected cells; host or cells: CHO cells
Procedure: as §1, §2

T1 sequence (P34972 whole entry): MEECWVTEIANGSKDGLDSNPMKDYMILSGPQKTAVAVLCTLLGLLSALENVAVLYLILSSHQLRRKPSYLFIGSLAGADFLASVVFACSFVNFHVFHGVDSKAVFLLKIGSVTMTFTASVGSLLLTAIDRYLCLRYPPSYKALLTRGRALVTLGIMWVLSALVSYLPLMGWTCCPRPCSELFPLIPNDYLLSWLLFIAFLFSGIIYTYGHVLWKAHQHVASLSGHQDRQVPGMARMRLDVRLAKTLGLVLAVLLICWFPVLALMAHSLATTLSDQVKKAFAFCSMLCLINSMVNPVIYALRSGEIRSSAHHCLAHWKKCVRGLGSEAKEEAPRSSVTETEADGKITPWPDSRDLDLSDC
T2 sequence (P21554 whole entry): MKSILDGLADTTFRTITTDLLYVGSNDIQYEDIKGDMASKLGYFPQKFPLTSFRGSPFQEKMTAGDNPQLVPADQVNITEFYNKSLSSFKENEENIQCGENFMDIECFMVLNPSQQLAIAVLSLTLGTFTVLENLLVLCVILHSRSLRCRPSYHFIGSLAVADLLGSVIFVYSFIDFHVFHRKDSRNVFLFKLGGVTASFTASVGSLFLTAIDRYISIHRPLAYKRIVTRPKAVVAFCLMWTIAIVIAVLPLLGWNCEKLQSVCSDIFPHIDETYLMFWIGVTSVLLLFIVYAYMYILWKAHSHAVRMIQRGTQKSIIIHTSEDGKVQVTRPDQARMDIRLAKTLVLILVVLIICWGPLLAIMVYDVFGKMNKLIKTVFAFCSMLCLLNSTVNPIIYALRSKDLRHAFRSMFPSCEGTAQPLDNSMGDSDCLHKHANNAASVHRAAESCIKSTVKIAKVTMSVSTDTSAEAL

| Structure (SMILES) | inhibition at 10 µM [1] [%] | inhibition at 10 µM [2] [%] | displacement of [3H]CP-55,940 in the competitive radioligand screen [1] | Ki ([1]; CB2, full competition curves vs [3H]CP-55,940) [nM] |
| --- | --- | --- | --- | --- |
| O=C1c2ccccc2N/C(=N/N=C/c2ccc[nH]2)[C@@H]2CCCN12 [Compound 4a] | -12.5 | -3.09 | – | – |
| Cn1ccnc1/C=N/N=C1/Nc2ccccc2C(=O)N2CCC[C@@H]12 [Compound 4b] | -14.5 | -14 | – | – |
| O=C1c2ccccc2N/C(=N/N=C/c2cncs2)[C@@H]2CCCN12 [Compound 4c, (S,E)-11-[(Thiazol-5-ylmethylene)hydrazono]-pyrrolo[2,1-c][1,4] Benzodiazepine] | 3.06 | 0.25 | – | – |
| Cc1ncc(/C=N/N=C2/Nc3ccccc3C(=O)N3CCC[C@@H]23)s1 [Compound 4d] | -33.6 | -28 | – | – |
| Cc1ncsc1/C=N/N=C1/Nc2ccccc2C(=O)N2CCC[C@@H]12 [Compound 4e] | 19.9 | 21.9 | – | – |
| Nc1ncc(/C=N/N=C2/Nc3ccccc3C(=O)N3CCC[C@@H]23)s1 [Compound 4f] | 3.72 | 1.75 | – | – |
| O=C1c2ccccc2N/C(=N/N=C/c2sc(Cl)nc2Cl)[C@@H]2CCCN12 [Compound 4g] | 29.3 | 24.2 | – | – |
| O=C1c2ccccc2N/C(=N/N=C/c2cc3ccccc3s2)[C@@H]2CCCN12 [Compound 4h, (S,E)-11-[2-(Benzo[b]thiophenylmethylene)hydrazono]-pyrrolo[2,1-c][1,4] Benzodiazepine] | 61 | 36.9 | more than 60% | – |
| O=C1c2cc(Br)ccc2N/C(=N/N=C/c2cc3ccccc3s2)[C@@H]2CCCN12 [Compound 4i, (S,E)-11-[(Benzo[b]thiophen-2-ylmethylene)hydrazono]-7-bromo-pyrrolo[2,1-c][1,4] Benzodiazepine] | 36.4 | 49.8 | – | – |
| O=C1c2cc(Br)ccc2N/C(=N/N=C/c2csc3ccccc23)[C@@H]2CCCN12 [Compound 4j] | 65.2 | 66.8 | – | – |
| Cc1c(/C=N/N=C2/Nc3ccccc3C(=O)N3CCC[C@@H]23)sc2ccccc12 [Compound 4l] | 51.7 | 77.2 | – | – |
| O=C1c2ccccc2N/C(=N/N=C/c2sc3ccccc3c2Cl)[C@@H]2CCCN12 [Compound 4m] | 50 | 5.22 | – | – |
| O=C1c2ccccc2N/C(=N/N=C/c2nc3ccccc3s2)[C@@H]2CCCN12 [Compound 4n, (S,E)-11-[(Benzo[d]thiazol-2-ylmethylene)hydrazono]-pyrrolo[2,1-c][1,4] Benzodiazepine] | 43.3 | 44.1 | – | – |
| Cn1cc(/C=N/N=C2/Nc3ccccc3C(=O)N3CCC[C@@H]23)c2ccccc21 [Compound 4o] | 1.01 | 5.09 | – | – |
| O=C1c2ccccc2N/C(=N/N=C/C23CC4CC(CC(C4)C2)C3)[C@@H]2CCCN12 [Compound 4q] | 95.6 | 55.3 | more than 60% | 137 |
